Converted amounts (≈) assume the structure as drawn.
Tests used:
[1] = tested on: MT-2 & H9/HIV-1IIIB (clade B, X4); assay: cell-cell fusion, dye transfer assay; format: cell-based; conditions: MT-2 & H9/HIV-1IIIB (clade B, X4)
Protocol: Inhibition of cell-cell fusion. A dye transfer assay was used for detection of HIV-1 mediated cell fusion as previously described (21, 24, 34). H9/HIV-1IIIB cells were labeled with a fluorescent reagent, Calcein-AM (Molecular Probes, Inc., Eugene, Oreg.) and then incubated with MT-2 cells (ratio=1:5) in 96-well plates at 37° C. for 2 hrs in the presence or absence of compounds tested. The fused and unfused Cacein-labeled HIV-1-infected cells were counted under an inverted fluorescence microscope (Zeiss, Germany) with an eyepiece micrometer disc. The percentage of inhibition of cell fusion and the IC50 values were calculated as previously described (21).

[2] = tested on: HIV-1 RU570 (clade G, R5); conditions: Primary RU570 (clade G, R5), PBMCs
Protocol: (§1) Inhibitory activity of compounds on infection by primary HIV-1 isolates was determined as previously described (41). PBMCs were isolated from the blood of healthy donors at the New York Blood Center by standard density gradient centrifugation using Histopaque-1077 (Sigma). The cells were plated in 75 cm^2 plastic flasks and incubated at 37° C. for 2 hrs. The nonadherent cells were collected and resuspended at 5×10^6 in 10 ml RPMI-1640 medium containing 10% FBS, 5 μg/ml PHA and 100 U/ml IL-2 (Sigma), followed by incubation at 37° C. for 3 days. The PHA-stimulated cells were infected with corresponding primary HIV-1 isolates at 0.01 multiplicity of infection (MOI) in the absence or presence of a compound at graded concentrations. Culture media were changed every 3 days. The supernatants were collected 7 days post-infection and tested for p24 antigen by ELISA as described above. The percent inhibition of p24 production and IC50 values were calculated as described above.

[3] = tested on: HIV-1 93TH051 (clade E, X4R5); conditions: Primary 93TH051 (clade E, X4R5), PBMCs
Protocol: as §1

[4] = tested on: HIV-1 93BR020 (clade F, X4R5); conditions: Primary 93BR020 (clade F, X4R5), PBMCs
Protocol: as §1

HIV-1IIIB = assay: inhibition of HIV-1IIIB replication (p24 production) in MT-2 cells; format: cell-based; conditions: for IC50: HIV-1IIIB replication, MT-2 cells; for inhibitory activity on HIV-1IIIB replication: concentration up to 80 μg/ml
Excerpt: (§2) Assessment of anti-HIV-1 infectivity. […] Reactions were terminated by addition of 1N H2SO4.

[5] = tested on: HIV-1 AZT-R (clade B, X4); conditions: Laboratory-adapted AZT-R (clade B, X4)
Protocol: (§3) Assessment of anti-HIV-1 infectivity. The inhibitory activity of compounds on infection by laboratory-adapted HIV-1 strains was determined as previously described (18). In brief, 1×10^4 MT-2 cells were infected with HIV-1 at 100 TCID50 (50% tissue culture infective dose) in 200 μl of RPMI 1640 medium containing 10% FBS in the presence or absence of compounds at graded concentrations overnight. For the time-of-addition assay, compounds were added at various time post-infection. Then the culture supernatants were removed and fresh media were added. On the fourth day post-infection, 100 μl of culture supernatants were collected from each well, mixed with equal volumes of 5% Triton X-100 and assayed for p24 antigen, which was quantitated by ELISA (51). Briefly, the wells of polystyrene plates (Immulon 1B, Dynex Technology, Chantilly, Va.) were coated with HIV immunoglobulin (HIVIG), which was prepared from plasma of HIV-seropositive donors with high neutralizing titers against HIV-1IIIB as previously described (44) in 0.085 M carbonate-bicarbonate buffer (pH 9.6) at 4° C. overnight, followed by washes with PBS-T buffer (0.01M PBS containing 0.05% Tween-20) and blocking with PBS containing 1% dry fat-free milk (Bio-Rad Inc., Hercules, Calif.). Virus lysates were added to the wells and incubated at 37° C. for 1 h. […] Absorbance at 450 nm was recorded in an ELISA reader (Ultra 384, Tecan). […]

HIV-1 SF2 (clade B, X4) = assay: infection by laboratory-adapted HIV-1 strain, p24 production; format: cell-based
Excerpt: as §2

gp120-CD4 binding = target: T1, gp120-CD4 binding (Human immunodeficiency virus type 1 group M subtype B, UniProt P03375); design: species or system HIV-1; conditions: 10 μg/ml
T1 construct: purchased Immunodiagnostics, Woburn, Mass; (gp120); Genentech Inc., South San Francisco, Calif; (sCD4)
Protocol: Inhibition of gp120 binding to CD4. Wells of polystyrene plates was coated with 100 μl of sheep anti-gp120 antibody D7324 (Cliniqa, Fallbrook, Calif.) at 2 μg/ml in carbonate buffer (pH 9.6) at 4° C. overnight and blocked with 1% dry fat-free milk in PBS at 37° C. for 1 h. One hundred microliters of recombinant gp120 molecule (Immunodiagnostics, Woburn, Mass.) at 0.5 μg/ml in PBS was added and incubated at 37° C. for 1 h, followed by three washes with PBS-T. Soluble CD4 (sCD4) at 0.25 μg/ml was added in the presence of a compound (25 μM) and incubated at 37° C. for 1 h. After three washes, rabbit anti-sCD4 IgG (0.25 μg/ml in PBS, 100 μl/well) was added and incubated at 37° C. for 1 h. Binding of rabbit anti-sCD4 IgG was determined by sequential addition of biotinylated goat-anti-rabbit IgG, SA-HRP, and TMB. After the reactions were terminated, absorbance at 450 nm was recorded in an ELISA reader (Tecan).
HIV-1 envelope glycoprotein gp120 was captured by the anti-gp120 antibody coated onto wells of polystyrene plates. […] After extensive washes, CD4 molecule bound to gp120 was quantitated by ELISA using anti-CD4 antibody.

HIV-1 RF (clade B, X4) = assay: infection by laboratory-adapted HIV-1 strain, p24 production; format: cell-based
Protocol: as §3

MT-2 cells = conditions: trypan blue, 2 hr
Protocol: Detection of in vitro cytotoxicity. The in vitro cytotoxicity of compounds for MT-2 cells was measured using trypan blue dye exclusion assay (41). Briefly, 100 μl of MT-2 cells (2×10^6/ml) were incubated with an equal volume of a compound diluted in culture media at graded concentrations at 37° C. for 2 hr. Ten microliters of cell suspension was transferred to a well of round-bottom plate and mixed with 10 μl of 0.04% trypan blue solution. The number of viable cells was counted using a hemocytometer under a microscope. The CC50 (the concentration for 50% cytotoxicity) values were calculated using the software Calcusyn (6).

SMILES | IC50 (μg/ml) for inhibition of cell-cell fusion [1] | IC50 (μg/ml) for inhibition of p24 production [2] | IC50 (μg/ml) for inhibition of p24 production [3] | IC50 (μg/ml) for inhibition of p24 production [4] | IC50 (HIV-1IIIB) | inhibitory activity on HIV-1IIIB replication (HIV-1IIIB) | IC50 (μg/ml) for inhibition of p24 production [5] | IC50 (μg/ml) for inhibition of p24 production (HIV-1 SF2 (clade B, X4)) | inhibition of gp120-CD4 binding (gp120-CD4 binding) | IC50 (μg/ml) for inhibition of p24 production (HIV-1 RF (clade B, X4)) | CC50 (MT-2 cells)
O=C(O)c1cc(-n2cccc2)ccc1Cl [NB-64] | 2.02 ± 0.19 µg/mL | 8.81 ± 0.24 µg/mL | 5.24 ± 1.80 µg/mL | 1.05 ± 0.18 µg/mL | 0.49 ± 0.09 µg/mL (≈ 2.21 µM) | significantly inhibited | 6.25 ± 0.25 µg/mL | 1.34 ± 0.06 µg/mL | did not significantly inhibited | 0.96 ± 0.03 µg/mL | >500 µg/mL
Cc1ccc(C)n1-c1ccc(C(=O)O)c(O)c1 [NB-2] | 1.53 ± 0.17 µg/mL | 23.12 ± 1.23 µg/mL | 1.15 ± 0.14 µg/mL | 2.50 ± 0.01 µg/mL | 0.24 ± 0.05 µg/mL (≈ 1.04 µM) | significantly inhibited | 1.41 ± 0.03 µg/mL | 0.44 ± 0.03 µg/mL | did not significantly inhibited | 0.45 ± 0.04 µg/mL | 305.60 ± 5.04 µg/mL (≈ 1320 µM)
